Data: US6346535B1, “Fungicidal mixtures” (American Cyanamid Company, priority 1999, dated 2002)
Like-named read-outs stand apart in the source and are kept apart here.

Tests used:
Format in all cases: in vivo
[1] = tested on: Erysiphe cichoracearum on cucumbers; experiment: Greenhouse trial, 4 day residual, Erysiphe cichoracearum on cucumbers; settings: for pest or weed control at 0.4 ppm / pest or weed control at 2 ppm / pest or weed control at 10 ppm / pest or weed control at 50 ppm / pest or weed control at 4 ppm / pest or weed control at 16 ppm / pest or weed control at 64 ppm / pest or weed control at 256 ppm: Golovinomyces cichoracearum, 96 h, read-out: Observed Efficacy
Excerpt: (§1) The fungicides are applied in single treatments, or in a combination comprising a benzophenone of formula I and a compound selected from (A) through (E) as defined above. The compounds are applied in form of an aqueous spray mix obtained from a concentrated formulation or the technical material.
(§2) 1. Seed is planted in 6 cm diameter plastic pots and maintained in the greenhouse.
(§3) 2. When the primary leaf is fully expanded (in the case of cereals) or several leaves are present (in the case of dicots), formulated test compounds are sprayed with a three nozzle overhead fungicide sprayer to near run-off. Alternatively, a single nozzle overhead track sprayer is used for application of the compounds to cereals at a rate of 200 liters/ha (l/ha). Plants are then allowed to air-dry.
(§4) 3. Inoculation precedes treatment in the case of curative evaluations and follows treatment in case of residual evaluations. For inoculation of powdery mildew disease, plants are set up on greenhouse benches with bottom watering mats and inoculated by dusting them with conidia from infected plants. Between inoculation and treatment for curative evaluations and between treatment and inoculation for residual evaluations, plants are maintained in the greenhouse with bottom watering. For inoculation of non-powdery mildew diseases, an aqueous spore suspension of the pathogen is applied to the plant and the plants are kept 1-2 days in a moist infection chamber before being returned to the greenhouse where they are maintained by bottom watering.
(§5) 4. Disease on the foliage as percent leaf area with disease symptoms/signs is evaluated about 7 days after inoculation. In the case of wheat, the tips and bases of the leaves are excluded from the evaluation. [formula]
(§6) 1. Technical compounds are formulated in a solvent/surfactant system consisting of 5% acetone and 0.05% Tween 20 in deionized water. Compounds are dissolved in acetone prior to addition of the water; the Tween 20 can be added through either the acetone or the water. Dilutions are made using the solvent/surfactant system. Formulated compounds are prepared using deionized water.
(§7) Assessments of the diseases took place at the indicated day after the application of the compounds. Per cent infected leaf area infected was evaluated. The efficacy of the compounds/compounds mixtures to control the diseases was calculated by using the formula given above under item 4: […]
(§8) Synergy of a fungicide mixture was determined by comparing the actual (observed) fungicidal activity of the mixture to the expected fungicidal activity of the mixture as calculated using the COLBY formula given hereinabove.

[2] = tested on: Puccinia recondita on wheat; experiment: Greenhouse trial, 4 day residual, Puccinia recondita on wheat; settings: for pest or weed control at 4 ppm / pest or weed control at 16 ppm / pest or weed control at 64 ppm / pest or weed control at 256 ppm / pest or weed control at 0.4 ppm / pest or weed control at 2 ppm / pest or weed control at 10 ppm / pest or weed control at 50 ppm: Puccinia recondita, 96 h, read-out: Observed Efficacy; for pest or weed control at 4 ppm / pest or weed control at 16 ppm / pest or weed control at 64 ppm / Observed Efficacy / pest or weed control at 256 ppm: compound alone; for pest or weed control at 0.4 ppm / pest or weed control at 2 ppm / pest or weed control at 10 ppm / pest or weed control at 50 ppm: Table XV (Example 15), 4 day residual; for pest or weed control at 0.4 ppm: dose rate 0.4 ppm; for pest or weed control at 2 ppm: dose rate 2 ppm; for pest or weed control at 10 ppm: dose rate 10 ppm; for pest or weed control at 50 ppm: dose rate 50 ppm
Excerpt: as §1, §2, §3, §4, §5, §6, §7, §8
Fungicidal Efficacy of the Mixture of BP-4+Other Fungicides (4 Day Residual) Against Puccinia recondita on Wheat
Fungicidal Efficacy of the Mixture of BP-4+Myclobutanil (4 Day Residual) Against Puccinia recondita on Wheat

[3] = tested on: Leptosphaeria nodorum on wheat; experiment: Greenhouse trial, 4 day residual, Leptosphaeria nodorum on wheat; settings: for pest or weed control at 4 ppm / pest or weed control at 16 ppm / pest or weed control at 64 ppm / pest or weed control at 256 ppm: Parastagonospora nodorum, 96 h, read-out: Observed Efficacy
Excerpt: as §1, §2, §3, §4, §5, §6, §7, §8
Fungicidal Efficacy of the Mixture of BP-4+Other Fungicides (4 Day Residual) Against Leptosphaeria nodorum on Wheat

[4] = Table XI, compound alone, dose rate 0.4 ppm
[5] = Table XI, compound alone, dose rate 2 ppm
[6] = Table XI, compound alone, dose rate 10 ppm
[7] = Table XI, compound alone, dose rate 50 ppm
[8] = Table X, compound alone, dose rate 64 ppm
[9] = Table X, compound alone, dose rate 256 ppm
[10] = Table VI, compound alone, dose rate 4 ppm
[11] = Table VI, compound alone, dose rate 16 ppm
[12] = Table VI, compound alone, dose rate 64 ppm
[13] = Table VI, compound alone, dose rate 256 ppm
[14] = Table VIII, compound alone, dose rate 4 ppm
[15] = Table VIII, compound alone, dose rate 16 ppm
[16] = Table VIII, compound alone, dose rate 64 ppm
[17] = Table VIII, compound alone, dose rate 256 ppm
[18] = Table XIV (Example 14), 4 day residual, dose rate 0.4 ppm
[19] = Table XIV (Example 14), 4 day residual, dose rate 2 ppm
[20] = Table XIV (Example 14), 4 day residual, dose rate 10 ppm
[21] = Table XIV (Example 14), 4 day residual, dose rate 50 ppm

Compound: Fc1ccc([C@]2(Cn3cncn3)O[C@H]2c2ccccc2Cl)cc1 (racemic) [Epoxiconazole]
- pest or weed control at 0.4 ppm [1, 4]: 0%
- pest or weed control at 2 ppm [1, 5]: 46%
- pest or weed control at 10 ppm [1, 6]: 68%
- pest or weed control at 50 ppm [1, 7]: 77%

Compound: C[C@@]1(c2ccc(Oc3ccccc3)cc2)OC(=O)N(Nc2ccccc2)C1=O (racemic) [Famoxadone]
- pest or weed control at 4 ppm ([2]; Table IX, dose rate 4 ppm): 45%
- pest or weed control at 16 ppm ([2]; Table IX, dose rate 16 ppm): 80%
- pest or weed control at 64 ppm ([2]; Table IX, dose rate 64 ppm): 92%
- pest or weed control at 4 ppm ([3]; Table X, compound alone, dose rate 4 ppm): 66%
- pest or weed control at 16 ppm ([3]; Table X, compound alone, dose rate 16 ppm): 69%
- pest or weed control at 64 ppm [3, 8]: 80%
- pest or weed control at 256 ppm [3, 9]: 97%

Compound: CC(Oc1ccc(Cl)cc1Cl)C(=O)NC(C)(C#N)C(C)C (stereo not shown) [AC 382042]
- Observed Efficacy [1, 4]: 7%
- Observed Efficacy [1, 5]: 3%
- Observed Efficacy [1, 6]: 14%
- Observed Efficacy [1, 7]: 25%

Compound: CO/C=C(/C(=O)OC)c1ccccc1Oc1cc(Oc2ccccc2C#N)ncn1 [Azoxystrobin]
- Observed Efficacy [1, 10]: 78%
- Observed Efficacy [1, 11]: 96%
- Observed Efficacy [1, 12]: 100%
- Observed Efficacy [1, 13]: 100%
- Observed Efficacy [3, 14]: 84%
- Observed Efficacy [3, 15]: 97%
- Observed Efficacy [3, 16]: 100%
- Observed Efficacy [3, 17]: 100%

Compound: CSC(=O)c1cccc2nnsc12 [BION, acibenzolar]
- Observed Efficacy [1, 10]: 0%
- Observed Efficacy [1, 11]: 0%
- Observed Efficacy [1, 12]: 0%
- Observed Efficacy [1, 13]: 0%
- Observed Efficacy ([2]; Table VII, dose rate 4 ppm): 0%
- Observed Efficacy ([2]; Table VII, dose rate 16 ppm): 0%
- Observed Efficacy ([2]; Table VII, dose rate 64 ppm): 0%
- Observed Efficacy ([2]; Table VII, dose rate 256 ppm): 0%

Compound: O=C1C2CC=CCC2C(=O)N1SC(Cl)(Cl)Cl (stereo not shown) [Captan]
- pest or weed control at 4 ppm ([2]; Table IX, dose rate 4 ppm): 4%
- pest or weed control at 16 ppm ([2]; Table IX, dose rate 16 ppm): 11%
- pest or weed control at 64 ppm ([2]; Table IX, dose rate 64 ppm): 55%
- pest or weed control at 256 ppm ([2]; Table IX, dose rate 256 ppm): 89%
- pest or weed control at 64 ppm [3, 8]: 84%
- pest or weed control at 256 ppm [3, 9]: 90%

Compound: N#Cc1c(Cl)c(Cl)c(Cl)c(C#N)c1Cl [Chlorothalonil]
- pest or weed control at 4 ppm [1, 10]: 0%
- pest or weed control at 16 ppm [1, 11]: 0%
- pest or weed control at 64 ppm [1, 12]: 0%
- pest or weed control at 256 ppm [1, 13]: 1%
- pest or weed control at 4 ppm ([2]; Table VII, dose rate 4 ppm): 0%
- pest or weed control at 16 ppm ([2]; Table VII, dose rate 16 ppm): 0%
- pest or weed control at 64 ppm ([2]; Table VII, dose rate 64 ppm): 0%
- pest or weed control at 256 ppm ([2]; Table VII, dose rate 256 ppm): 31%

Compound: COc1ccc(C(=CC(=O)N2CCOCC2)c2ccc(Cl)cc2)cc1OC [Dimethomorph]
- pest or weed control at 4 ppm [1, 10]: 0%
- pest or weed control at 16 ppm [1, 11]: 0%
- pest or weed control at 64 ppm [1, 12]: 0%
- pest or weed control at 256 ppm [1, 13]: 18%
- pest or weed control at 16 ppm ([2]; Table VII, dose rate 16 ppm): 0%
- pest or weed control at 64 ppm ([2]; Table VII, dose rate 64 ppm): 0%
- pest or weed control at 256 ppm ([2]; Table VII, dose rate 256 ppm): 0%
- pest or weed control at 4 ppm [3, 14]: 1%
- pest or weed control at 16 ppm [3, 15]: 6%
- pest or weed control at 64 ppm [3, 16]: 11%
- pest or weed control at 256 ppm [3, 17]: 14%

Compound: N#Cc1sc2c(=O)c3ccccc3c(=O)c=2sc1C#N [Dithianon]
- pest or weed control at 4 ppm [1, 10]: 0%
- pest or weed control at 16 ppm [1, 11]: 0%
- pest or weed control at 64 ppm [1, 12]: 0%
- pest or weed control at 256 ppm [1, 13]: 0%
- pest or weed control at 4 ppm ([2]; Table VII, dose rate 4 ppm): 4%
- pest or weed control at 16 ppm ([2]; Table VII, dose rate 16 ppm): 16%
- pest or weed control at 64 ppm ([2]; Table VII, dose rate 64 ppm): 84%
- pest or weed control at 256 ppm ([2]; Table VII, dose rate 256 ppm): 95%
- pest or weed control at 4 ppm [3, 14]: 0%
- pest or weed control at 16 ppm [3, 15]: 1%
- pest or weed control at 64 ppm [3, 16]: 37%
- pest or weed control at 256 ppm [3, 17]: 74%

Compound: CCCCCCCCCCCCNC(=N)N [Dodine]
- pest or weed control at 4 ppm [3]: 0%
- pest or weed control at 16 ppm [3]: 6%
- pest or weed control at 64 ppm [3]: 24%
- pest or weed control at 256 ppm [3]: 59%

Compound: N#Cc1c[nH]cc1-c1cccc(Cl)c1Cl [Fenpiclonil]
- pest or weed control at 4 ppm ([2]; Table IX, dose rate 4 ppm): 1%
- pest or weed control at 16 ppm ([2]; Table IX, dose rate 16 ppm): 0%
- pest or weed control at 64 ppm ([2]; Table IX, dose rate 64 ppm): 18%
- pest or weed control at 256 ppm ([2]; Table IX, dose rate 256 ppm): 58%

Compound: CC(Cc1ccc(C(C)(C)C)cc1)CN1CCCCC1 (stereo not shown) [Fenpropidin]
- pest or weed control at 4 ppm [1, 10]: 0%
- pest or weed control at 16 ppm [1, 11]: 6%
- pest or weed control at 64 ppm [1, 12]: 21%
- pest or weed control at 256 ppm [1, 13]: 69%
- pest or weed control at 4 ppm ([2]; Table VII, dose rate 4 ppm): 0%
- pest or weed control at 16 ppm ([2]; Table VII, dose rate 16 ppm): 0%
- pest or weed control at 64 ppm ([2]; Table VII, dose rate 64 ppm): 8%
- pest or weed control at 256 ppm ([2]; Table VII, dose rate 256 ppm): 97%
- pest or weed control at 64 ppm [3, 16]: 0%
- pest or weed control at 256 ppm [3, 17]: 21%

Compound: O=[N+]([O-])c1cc(C(F)(F)F)c(Cl)c([N+](=O)[O-])c1Nc1ncc(C(F)(F)F)cc1Cl [Fluazinam]
- pest or weed control at 4 ppm ([2]; Table IX, dose rate 4 ppm): 0%
- pest or weed control at 16 ppm ([2]; Table IX, dose rate 16 ppm): 6%
- pest or weed control at 64 ppm ([2]; Table IX, dose rate 64 ppm): 22%
- pest or weed control at 256 ppm ([2]; Table IX, dose rate 256 ppm): 80%
- pest or weed control at 64 ppm [3, 8]: 81%
- pest or weed control at 256 ppm [3, 9]: 91%

Compound: COCC(=O)N(c1c(C)cccc1C)C(C)C(=O)OC (stereo not shown) [Metalaxyl]
- pest or weed control at 64 ppm ([2]; Table IX, dose rate 64 ppm): 0%
- pest or weed control at 256 ppm ([2]; Table IX, dose rate 256 ppm): 12%

Compound: CCCC(Cn1cncn1)c1ccc(Cl)cc1Cl (stereo not shown) [Penconazole]
- pest or weed control at 0.4 ppm [1, 18]: 6%
- pest or weed control at 2 ppm [1, 19]: 35%
- pest or weed control at 10 ppm [1, 20]: 37%
- pest or weed control at 50 ppm [1, 21]: 67%
- pest or weed control at 0.4 ppm [2]: 0%
- pest or weed control at 2 ppm [2]: 3%
- pest or weed control at 10 ppm [2]: 10%
- pest or weed control at 50 ppm [2]: 26%

Compound: CC(C)(C)C(O)(CCc1ccc(Cl)cc1)Cn1cncn1 (stereo not shown) [Tebuconazole]
- pest or weed control at 0.4 ppm [1, 4]: 10%
- pest or weed control at 2 ppm [1, 5]: 45%
- pest or weed control at 10 ppm [1, 6]: 79%
- pest or weed control at 50 ppm [1, 7]: 95%

Compound: CC(C)(C)C(O)C(Oc1ccc(Cl)cc1)n1cncn1 (stereo not shown) [Triadimenol]
- pest or weed control at 0.4 ppm [1, 18]: 1%
- pest or weed control at 2 ppm [1, 19]: 21%
- pest or weed control at 10 ppm [1, 20]: 45%
- pest or weed control at 50 ppm [1, 21]: 68%
- pest or weed control at 0.4 ppm [2]: 1%
- pest or weed control at 2 ppm [2]: 21%
- pest or weed control at 10 ppm [2]: 69%
- pest or weed control at 50 ppm [2]: 98%

Compound: Ethirimol
- Observed Efficacy [1, 10]: 50%
- Observed Efficacy [1, 11]: 83%
- Observed Efficacy [1, 12]: 94%
- Observed Efficacy [1, 13]: 100%
- Observed Efficacy ([2]; Table VII, dose rate 16 ppm): 0%
- Observed Efficacy ([2]; Table VII, dose rate 64 ppm): 0%
- Observed Efficacy ([2]; Table VII, dose rate 256 ppm): 0%
